Assay results published in patent US8470787B2, “Hydrates of erythromycin salts, preparation and use thereof” (priority 2008, dated 2013).

Tests used:
[1] = accelerated stability test (sealed vial, 30° C., HPLC content and related substances); format: physicochemical
Method: The hydrates of erythromycin salts according to the present invention can be stably stored. A sample of the above hydrates was sealed in a vial, and an accelerated stability test was conducted at 30° C. and changes of the content and related substances were measured by a HPLC method (C18 reverse phase column, 0.01M KH2PO4-acetonitrile (60:40) as the mobile phase, detective wavelength: 215 nm, column temperature: 35° C., flow rate: 1.0 ml/min) (upon different hydrates of erythromycin salts, such as crystalline hydrates of erythromycin thiocyanate, the pH of the mobile phase can be adjusted and KH2PO4 can be changed into NaH2PO4, the detective wavelength can be changed into 210 nm, and the column temperature can be set at 35-55° C., such as 50° C. for analysis and measurement). […] As compared to the anhydrous of erythromycin salt, the hydrates of erythromycin salts according to the present invention have a lower hygroscopicity, i.e., has a better stability of hygroscopicity, which facilitates the package and storage thereof, or is a more advantageously stable form for storage relative to the anhydrous.

[2] = system: Staphylococcus epidermidis; test: antibacterial activity, tube double dilution method, clinically obtained bacteria; format: cell-based; conditions: 21 strains
Staphylococcus aureus = test: as above; format: cell-based; conditions: 26 strains
[3] = system: Streptococcus hemolyticus; test: as above; format: cell-based
Method: (§1) The antibacterial activities of the hydrates of erythromycin salts are determined by culturing clinically obtained bacteria and measuring in accordance with pharmacological test methods (the tube double dilution method), and the results are shown in the following tables 9, 10, 11 and 12.

Propionibacterium = test: as above; format: cell-based
Method: as §1

Neisseria gonorrhoeae = test: as above; format: cell-based
Method: as §1

Pneumococcus = test: as above; format: cell-based
Method: as §1

Bacillus fragilis = test: as above; format: cell-based
Method: as §1

Bacillus influenzae = test: as above; format: cell-based
Method: as §1

Streptococcus viridan = test: as above; format: cell-based; conditions: 23 strains
Escherichia coli = test: as above; format: cell-based; conditions: 21 strains
[4] = spray-dried product

CC[C@H]1OC(=O)[C@H](C)[C@@H](O[C@H]2C[C@@](C)(OC)[C@@H](O)[C@H](C)O2)[C@H](C)[C@@H](O[C@@H]2O[C@H](C)C[C@H](N(C)C)[C@H]2O)[C@](C)(O)C[C@@H](C)C(=O)[C@H](C)[C@@H](O)[C@]1(C)O.O.O.O.O.O.O=C(O)[C@H](O)[C@@H](O)[C@H](O[C@@H]1O[C@H](CO)[C@H](O)[C@H](O)[C@H]1O)[C@H](O)CO [erythromycin lactobionate pentahydrate]
Assay (%) ([1]; month 0): 99.9% | Form ([1]; month 0): off-white powder | Assay (%) ([1]; month 1): 100.2% | Form ([1]; month 1): off-white powder | Assay (%) ([1]; month 2): 99.8% | Form ([1]; month 2): off-white powder | Assay (%) ([1]; month 3): 100.1% | Form ([1]; month 3): off-white powder | Assay (%) ([1]; month 6): 99.9% | Form ([1]; month 6): off-white powder | MIC50 [2]: 16 µg/mL | MIC50 (Staphylococcus aureus): 0.12 µg/mL | MIC50 ([3]; 16 strains): 0.06 µg/mL | MIC90 ([3]; 16 strains): 32 µg/mL | MIC ([3]; range over 16 strains): 0.03 to 32 µg/mL | MIC50 (Propionibacterium; 18 strains): 0.06 µg/mL | MIC90 (Propionibacterium; 18 strains): 0.12 µg/mL | MIC (Propionibacterium; range over 18 strains): 0.03 to 16 µg/mL | MIC50 (Neisseria gonorrhoeae; 16 strains): 0.25 µg/mL | MIC90 (Neisseria gonorrhoeae; 16 strains): 1 µg/mL | MIC (Neisseria gonorrhoeae; range over 16 strains): 0.06 to 2 µg/mL | MIC50 (Pneumococcus; 18 strains): 0.06 µg/mL | MIC90 (Pneumococcus; 18 strains): 1 µg/mL | MIC (Pneumococcus; range over 18 strains): 0.03 to 0.5 µg/mL | MIC50 (Bacillus fragilis; 15 strains): 4 µg/mL | MIC90 (Bacillus fragilis; 15 strains): 16 µg/mL | MIC (Bacillus fragilis; range over 15 strains): 0.5 to 64 µg/mL | MIC50 (Bacillus influenzae; 17 strains): 4 µg/mL | MIC90 (Bacillus influenzae; 17 strains): 8 µg/mL | MIC (Bacillus influenzae; range over 17 strains): 0.12 to 8 µg/mL | MIC50 (Streptococcus viridan): 0.06 µg/mL | MIC90 (Streptococcus viridan): 0.5 µg/mL | MIC50 (Escherichia coli): 4 µg/mL | potency [4]: 626 u/mg
